Each structure is given as a SMILES string. Read-outs that look alike come from different tables or passages of the source.

From PMC7252619 (PLoS ONE, 2020) come the findings set out here.

In test [1] the target is VEGFR2 (Homo sapiens, UniProt P35968). Nature of the test: Kinase activity test (ReactionBiology), % enzyme activity relative to DMSO. The format is biochemical. On the set-up: purchased ReactionBiology. Conditions: VEGFR2.
Test [2] has as its target T1, CK1d (Homo sapiens, UniProt P48730).
T1 construct: purchased ReactionBiology
The test is described as above. The class given is biochemical. Particulars: CK1d; for % Enzyme Activity (relative to DMSO controls), Data 1: replicate Data 1; for % Enzyme Activity (relative to DMSO controls), Data 2: replicate Data 2.
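Wherever remaining activity is given: VEGFR2 was one member of a ten-kinase screening panel testing marketed FDA-approved drugs.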

Sequence of VEGFR2 (P35968 20-1356): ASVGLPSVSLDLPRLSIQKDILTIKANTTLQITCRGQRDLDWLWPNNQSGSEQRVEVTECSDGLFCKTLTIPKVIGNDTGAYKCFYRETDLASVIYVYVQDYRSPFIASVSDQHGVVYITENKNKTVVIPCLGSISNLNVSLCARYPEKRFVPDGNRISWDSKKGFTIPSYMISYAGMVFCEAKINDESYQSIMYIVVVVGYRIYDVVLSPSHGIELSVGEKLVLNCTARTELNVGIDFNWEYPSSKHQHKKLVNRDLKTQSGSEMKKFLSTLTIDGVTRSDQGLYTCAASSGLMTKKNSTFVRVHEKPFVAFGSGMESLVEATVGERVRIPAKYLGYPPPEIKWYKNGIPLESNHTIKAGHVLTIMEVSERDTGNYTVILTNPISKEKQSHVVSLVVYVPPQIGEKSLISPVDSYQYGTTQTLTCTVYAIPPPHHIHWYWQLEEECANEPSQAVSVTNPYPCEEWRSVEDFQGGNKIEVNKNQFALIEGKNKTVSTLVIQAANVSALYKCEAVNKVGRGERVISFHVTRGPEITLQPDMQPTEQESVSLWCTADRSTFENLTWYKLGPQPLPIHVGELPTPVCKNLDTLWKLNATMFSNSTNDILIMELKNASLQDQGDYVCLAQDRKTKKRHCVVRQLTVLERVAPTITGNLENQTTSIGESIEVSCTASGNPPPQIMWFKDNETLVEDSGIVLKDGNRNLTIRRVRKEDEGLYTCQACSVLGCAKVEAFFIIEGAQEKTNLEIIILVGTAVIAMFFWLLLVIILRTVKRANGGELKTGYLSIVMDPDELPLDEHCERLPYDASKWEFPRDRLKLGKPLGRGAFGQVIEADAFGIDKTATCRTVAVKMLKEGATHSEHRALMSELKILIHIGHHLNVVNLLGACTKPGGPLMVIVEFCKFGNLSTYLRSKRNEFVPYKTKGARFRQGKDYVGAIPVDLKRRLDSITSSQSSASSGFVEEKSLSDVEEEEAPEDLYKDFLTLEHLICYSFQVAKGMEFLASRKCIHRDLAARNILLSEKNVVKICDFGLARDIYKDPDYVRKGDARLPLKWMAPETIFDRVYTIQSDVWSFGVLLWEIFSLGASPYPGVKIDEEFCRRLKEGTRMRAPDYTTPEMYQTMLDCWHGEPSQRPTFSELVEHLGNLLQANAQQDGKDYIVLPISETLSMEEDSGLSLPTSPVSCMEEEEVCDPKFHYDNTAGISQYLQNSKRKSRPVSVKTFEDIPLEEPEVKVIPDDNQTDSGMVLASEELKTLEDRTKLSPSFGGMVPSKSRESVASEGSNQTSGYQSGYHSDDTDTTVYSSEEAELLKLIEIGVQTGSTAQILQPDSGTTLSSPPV
T1 sequence (P48730 whole entry): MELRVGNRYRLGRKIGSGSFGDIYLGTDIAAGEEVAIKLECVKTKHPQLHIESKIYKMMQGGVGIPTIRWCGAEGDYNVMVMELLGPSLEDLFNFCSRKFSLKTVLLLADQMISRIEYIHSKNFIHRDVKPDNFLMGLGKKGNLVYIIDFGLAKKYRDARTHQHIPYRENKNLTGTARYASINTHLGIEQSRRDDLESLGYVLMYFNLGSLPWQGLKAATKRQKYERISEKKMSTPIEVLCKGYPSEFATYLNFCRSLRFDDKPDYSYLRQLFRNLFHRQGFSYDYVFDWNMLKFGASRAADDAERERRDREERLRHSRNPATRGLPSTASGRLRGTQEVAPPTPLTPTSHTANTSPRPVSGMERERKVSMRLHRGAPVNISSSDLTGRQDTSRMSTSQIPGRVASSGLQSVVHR

Regarding `Cn1c(=O)cc(N2CCC[C@@H](N)C2)n(Cc2ccccc2C#N)c1=O` [Alogliptin], the “% Enzyme Activity (relative to DMSO controls), Average” value is 110.86% in test [1] (1 uM, Average) and 104.24% in test [1] (10 uM, Average). The “% Enzyme Activity (relative to DMSO controls), Data 1” value is 108.92% in test [1] (1 uM, replicate Data 1) and 106.32% in test [1] (10 uM, replicate Data 1). The “% Enzyme Activity (relative to DMSO controls), Data 2” value in test [1] (1 uM, replicate Data 2) is 112.79%; in test [1] (10 uM, replicate Data 2), 102.16%.
Turning to `CCCCC[C@H](O)/C=C/[C@H]1[C@H](O)CC(=O)[C@@H]1CCCCCCC(=O)O` [Alprostadil], in test [2] (1 uM), the “% Enzyme Activity (relative to DMSO controls), Average” value is given as 100.17%; the “% Enzyme Activity (relative to DMSO controls), Data 1” value was found to be 100.59%; the “% Enzyme Activity (relative to DMSO controls), Data 2” value was 99.74%. In test [2] (10 uM), the “% Enzyme Activity (relative to DMSO controls), Average” value was determined as 106.64%; the “% Enzyme Activity (relative to DMSO controls), Data 1” value is reported as 108.06%; the “% Enzyme Activity (relative to DMSO controls), Data 2” value came out at 105.21%.
Regarding `CC1(C)S[C@@H]2[C@H](NC(=O)[C@H](N)c3ccccc3)C(=O)N2[C@H]1C(=O)O` [Ampicillin], the “% Enzyme Activity (relative to DMSO controls), Average” value turned out to be 99.13% in test [1] (1 uM, Average) and 96.01% in test [1] (10 uM, Average). Besides, the “% Enzyme Activity (relative to DMSO controls), Data 1” value amounted to 103.06% in test [1] (1 uM, replicate Data 1) and 95.11% in test [1] (10 uM, replicate Data 1). The “% Enzyme Activity (relative to DMSO controls), Data 2” value in test [1] (1 uM, replicate Data 2) was 95.2%; in test [1] (10 uM, replicate Data 2), 96.91%.
Take `CC(C)CN(C[C@@H](O)[C@H](Cc1ccccc1)NC(=O)O[C@H]1CCOC1)S(=O)(=O)c1ccc(N)cc1` [Amprenavir]: the “% Enzyme Activity (relative to DMSO controls), Average” value in test [2] (1 uM) is listed as 107.55%.
On to `CC(C)(Oc1ccc(CCNC(=O)c2ccc(Cl)cc2)cc1)C(=O)O` [Bezafibrate], for which the “% Enzyme Activity (relative to DMSO controls), Average” value in test [1] (1 uM, Average) is 106.10%; in test [1] (10 uM, Average) it was 106.53%. For the same compound, the “% Enzyme Activity (relative to DMSO controls), Data 1” value was 100.57% in test [1] (1 uM, replicate Data 1) and 106.16% in test [1] (10 uM, replicate Data 1). The “% Enzyme Activity (relative to DMSO controls), Data 2” value was determined as 111.63% in test [1] (1 uM, replicate Data 2) and 106.89% in test [1] (10 uM, replicate Data 2).
Regarding `COc1cccc2c1C(=O)c1c(O)c3c(c(O)c1C2=O)C[C@@](O)(C(=O)CO)C[C@@H]3O[C@H]1C[C@H](N)[C@H](O)[C@H](C)O1` [Doxorubicin], the “% Enzyme Activity (relative to DMSO controls), Average” value was found to be 110.51% in test [1] (1 uM, Average) and 100.16% in test [1] (10 uM, Average). Also, the “% Enzyme Activity (relative to DMSO controls), Data 1” value was 112.09% in test [1] (1 uM, replicate Data 1) and 99.85% in test [1] (10 uM, replicate Data 1). Moreover, the “% Enzyme Activity (relative to DMSO controls), Data 2” value amounted to 108.92% in test [1] (1 uM, replicate Data 2) and 100.47% in test [1] (10 uM, replicate Data 2).
As for `C[C@]12CC[C@@H]3c4ccc(O)cc4CC[C@H]3[C@@H]1CCC2=O` [Estrone], the “% Enzyme Activity (relative to DMSO controls), Average” value in test [1] (1 uM, Average) is recorded as 106.40%; in test [1] (10 uM, Average), 104.79%. Moreover, the “% Enzyme Activity (relative to DMSO controls), Data 1” value was found to be 108.92% in test [1] (1 uM, replicate Data 1) and 105.29% in test [1] (10 uM, replicate Data 1). The “% Enzyme Activity (relative to DMSO controls), Data 2” value is given as 103.87% in test [1] (1 uM, replicate Data 2) and 104.29% in test [1] (10 uM, replicate Data 2).
Turning to `CC(=O)[C@]1(O)Cc2c(O)c3c(c(O)c2[C@@H](O[C@H]2C[C@H](N)[C@H](O)[C@H](C)O2)C1)C(=O)c1ccccc1C3=O` [Idarubicin], the “% Enzyme Activity (relative to DMSO controls), Average” value was found to be 111.69% in test [1] (1 uM, Average) and 106.65% in test [1] (10 uM, Average). The “% Enzyme Activity (relative to DMSO controls), Data 1” value worked out at 111.85% in test [1] (1 uM, replicate Data 1) and 105.86% in test [1] (10 uM, replicate Data 1). Also, the “% Enzyme Activity (relative to DMSO controls), Data 2” value in test [1] (1 uM, replicate Data 2) is recorded as 111.52%; in test [1] (10 uM, replicate Data 2), 107.43%.
For the compound `CS(=O)(=O)c1ccc(C(=O)Nc2ccc(Cl)c(-c3ccccn3)c2)c(Cl)c1` [Vismodegib], the remaining activity at 1 µM in test [1] (1 uM, Average, read-out: % Enzyme Activity (relative to DMSO controls), Average) worked out at 103%; in test [1] (1 uM, replicate Data 1, read-out: % Enzyme Activity (relative to DMSO controls), Data 1) it was 103%; in test [1] (1 uM, replicate Data 2, read-out: % Enzyme Activity (relative to DMSO controls), Data 2) it was 103%. The remaining activity at 10 µM in test [1] (10 uM, Average, read-out: % Enzyme Activity (relative to DMSO controls), Average) stood at 91.1%; in test [1] (10 uM, replicate Data 1, read-out: % Enzyme Activity (relative to DMSO controls), Data 1) it was 97.8%; in test [1] (10 uM, replicate Data 2, read-out: % Enzyme Activity (relative to DMSO controls), Data 2), 84.5%.
